One may read the IC50 as the concentration needed to halve the response being measured.

IC50 data for 41 compounds are collected here from patent US8394848B2, “Compounds that modulate intracellular calcium” (Calcimedica, Inc., priority 2008, dated 2013).

Some results are limits rather than exact numbers.

This test relates to JR251 or RBL cells. Nature of the test: Store-operated calcium entry, either JR251 or RBL cells, or both. It is filed as cell-based. The method, boiled down:
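Orai1/STIM1 stable cells: fluo-4-AM loaded, compound 30 min at RT in Ca2+-free HBSS, then CaCl2 added; IC50 from Peak-Basal FLIPR fluorescence. RBL-2H3 cells: compound 5 min, then thapsigargin (5.5× stock, 5.5 uM) 25 min, then calcium added; IC50 from Upslope (signal 7 s after calcium minus baseline).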
Take `O=C(Nc1scc(-c2ccc(Br)cc2)c1C(=O)O)c1ccncc1` [4-(4-bromophenyl)-2-(isonicotinamido)thiophene-3-carboxylic acid]: the half-inhibitory concentration (IC50) is < 10 µM.
Next, `O=C(Nc1scc(-c2ccc(Br)cc2)c1C(=O)O)c1cccnc1` [4-(4-bromophenyl)-2-(nicotinamido)thiophene-3-carboxylic acid]: < 10 µM.
With `O=C(Nc1scc(-c2ccc(Br)cc2)c1C(=O)O)c1cnccn1` [4-(4-bromophenyl)-2-(pyrazine-2-carboxamido)thiophene-3-carboxylic acid], the IC50 is < 10 µM.
Turning to `O=C(Nc1scc(-c2ccc(Br)cc2)c1C(=O)O)c1cc2ccccn2n1` [4-(4-bromophenyl)-2-(pyrazolo[1,5-a]pyridine-2-carboxamido)thiophene-3-carboxylic acid], the IC50 was < 10 µM.
Turning to `O=C(Nc1scc(-c2ccc(Br)cc2)c1C(=O)O)c1ccnnc1` [4-(4-bromophenyl)-2-(pyridazine-4-carboxamido)thiophene-3-carboxylic acid], the IC50 was < 10 µM.
`O=C(Nc1scc(-c2ccc(Br)cc2)c1C(=O)O)c1ccc2ccccc2n1` [4-(4-bromophenyl)-2-(quinoline-2-carboxamido)thiophene-3-carboxylic acid]: the concentration for half-maximal inhibition (IC50) is < 10 µM.
The result for `O=C(Nc1scc(-c2ccc(Br)cc2)c1C(=O)O)c1cnc2ccccc2n1` [4-(4-bromophenyl)-2-(quinoxaline-2-carboxamido)thiophene-3-carboxylic acid] reads < 10 µM.
Next, `O=C(CCc1ccccc1)Nc1scc(-c2ccc(Cl)cc2F)c1C(=O)O` [4-(4-chloro-2-fluorophenyl)-2-(3-phenylpropanamido)thiophene-3-carboxylic acid]: < 10 µM; `O=C(Nc1scc(-c2ccc(Cl)cc2F)c1C(=O)O)c1nc2cccc(F)c2s1` [4-(4-chloro-2-fluorophenyl)-2-(7-fluorobenzo[d]thiazole-2-carboxamido)thiophene-3-carboxylic acid]: < 10 µM.
For `O=C(Nc1scc(-c2ccc(Cl)c(F)c2)c1C(=O)O)c1nc2c(F)cccc2o1` [4-(4-chloro-3-fluorophenyl)-2-(4-fluorobenzo[d]oxazole-2-carboxamido)thiophene-3-carboxylic acid], the concentration for half-maximal inhibition (IC50) is < 10 µM.
The result for `O=C(Nc1scc(-c2ccc(Cl)c(F)c2)c1C(=O)O)c1nc2cccc(F)c2o1` [4-(4-chloro-3-fluorophenyl)-2-(7-fluorobenzo[d]oxazole-2-carboxamido)thiophene-3-carboxylic acid] reads < 10 µM; that for `O=C(O)c1c(-c2ccc(Cl)cc2)csc1NC(=O)C1CCc2ccccc2C1` (centres unmarked) [4-(4-chlorophenyl)-2-(1,2,3,4-tetrahydronaphthalene-2-carboxamido)thiophene-3-carboxylic acid], < 10 µM.
With `O=C(O)c1c(-c2ccc(Cl)cc2)csc1NC(=O)C1Cc2ccccc21` (centres unmarked) [4-(4-chlorophenyl)-2-(1,2-dihydrocyclobutabenzene-1-carboxamido)thiophene-3-carboxylic acid], the IC50 was < 10 µM.
`Cc1nn(C)c2sc(C(=O)Nc3scc(-c4ccc(Cl)cc4)c3C(=O)O)cc12` [4-(4-chlorophenyl)-2-(1,3-dimethyl-1H-thieno[2,3-c]pyrazole-5-carboxamido)thiophene-3-carboxylic acid]: the IC50 is < 10 µM.
For `O=C(O)c1c(-c2ccc(Cl)cc2)csc1NC(=O)C1(c2ccc(Cl)cc2)CC1` [4-(4-chlorophenyl)-2-(1-(4-chlorophenyl)cyclopropanecarboxamido)thiophene-3-carboxylic acid], the IC50 is < 10 µM.
Next, `Cn1cnc(C(=O)Nc2scc(-c3ccc(Cl)cc3)c2C(=O)O)c1` [4-(4-chlorophenyl)-2-(1-methyl-1H-imidazole-4-carboxamido)thiophene-3-carboxylic acid]: < 10 µM; `Cn1nc(C(=O)Nc2scc(-c3ccc(Cl)cc3)c2C(=O)O)cc1-c1ccccc1` [4-(4-chlorophenyl)-2-(1-methyl-5-phenyl-1H-pyrazole-3-carboxamido)thiophene-3-carboxylic acid]: < 10 µM.
For `O=C(Nc1scc(-c2ccc(Cl)cc2)c1C(=O)O)c1cnn(-c2ccccc2)c1` [4-(4-chlorophenyl)-2-(1-phenyl-1H-pyrazole-4-carboxamido)thiophene-3-carboxylic acid], the IC50 was < 10 µM.
On to `O=C(Nc1scc(-c2ccc(Cl)cc2)c1C(=O)O)c1cnn(-c2ccccc2)c1C(F)(F)F` [4-(4-chlorophenyl)-2-(1-phenyl-5-(trifluoromethyl)-1H-pyrazole-4-carboxamido)thiophene-3-carboxylic acid], for which the IC50 was < 10 µM.
The result for `O=C(O)c1c(-c2ccc(Cl)cc2)csc1NC(=O)C1Cc2ccccc2C1` [4-(4-chlorophenyl)-2-(2,3-dihydro-1H-indene-2-carboxamido)thiophene-3-carboxylic acid] reads < 10 µM; that for `O=C(O)c1c(-c2ccc(Cl)cc2)csc1NC(=O)C1COc2ccccc2O1` (centres unmarked) [4-(4-chlorophenyl)-2-(2,3-dihydrobenzo[b][1,4]dioxine-2-carboxamido)thiophene-3-carboxylic acid], < 10 µM; that for `O=C(O)c1c(-c2ccc(Cl)cc2)csc1NC(=O)C1Cc2ccccc2S1` (centres unmarked) [4-(4-chlorophenyl)-2-(2,3-dihydrobenzo[b]thiophene-2-carboxamido)thiophene-3-carboxylic acid], < 10 µM.
Next, `O=C(Nc1scc(-c2ccc(Cl)cc2)c1C(=O)O)c1cc(Cl)sc1Cl` [4-(4-chlorophenyl)-2-(2,5-dichlorothiophene-3-carboxamido)thiophene-3-carboxylic acid]: < 10 µM; `Cc1cc(C(=O)Nc2scc(-c3ccc(Cl)cc3)c2C(=O)O)c(C)o1` [4-(4-chlorophenyl)-2-(2,5-dimethylfuran-3-carboxamido)thiophene-3-carboxylic acid]: < 10 µM; `O=C(Nc1scc(-c2ccc(Cl)cc2)c1C(=O)O)c1ccc(Cl)nc1Cl` [4-(4-chlorophenyl)-2-(2,6-dichloronicotinamido)thiophene-3-carboxylic acid]: < 10 µM.
The result for `COc1ccc(C(=O)Nc2scc(-c3ccc(Cl)cc3)c2C(=O)O)c(OC)n1` [4-(4-chlorophenyl)-2-(2,6-dimethoxynicotinamido)thiophene-3-carboxylic acid] reads < 10 µM; that for `O=C(CC1CCc2ccccc21)Nc1scc(-c2ccc(Cl)cc2)c1C(=O)O` (centres unmarked) [4-(4-chlorophenyl)-2-(2-(2,3-dihydro-1H-inden-1-yl)acetamido)thiophene-3-carboxylic acid], < 10 µM; that for `O=Cc1sccc1OCC(=O)Nc1scc(-c2ccc(Cl)cc2)c1C(=O)O` [4-(4-chlorophenyl)-2-(2-(2-formylthiophen-3-yloxy)acetamido)thiophene-3-carboxylic acid], < 10 µM.
For the compound `O=C(Nc1scc(-c2ccc(Cl)cc2)c1C(=O)O)c1cnc(C(F)(F)F)nc1` [4-(4-chlorophenyl)-2-(2-(trifluoromethyl)pyrimidine-5-carboxamido)thiophene-3-carboxylic acid], the concentration for half-maximal inhibition (IC50) was < 10 µM.
The result for `O=C(O)c1c(-c2ccc(Cl)cc2)csc1NC(=O)C(F)Cc1ccccc1` (centres unmarked) [4-(4-chlorophenyl)-2-(2-fluoro-3-phenylpropanamido)thiophene-3-carboxylic acid] reads < 10 µM; that for `CC(C(=O)Nc1scc(-c2ccc(Cl)cc2)c1C(=O)O)C(C)c1ccccc1` (centres unmarked) [4-(4-chlorophenyl)-2-(2-methyl-3-phenylbutanamido)thiophene-3-carboxylic acid], < 10 µM; that for `CC(Cc1ccccc1)C(=O)Nc1scc(-c2ccc(Cl)cc2)c1C(=O)O` (centres unmarked) [4-(4-chlorophenyl)-2-(2-methyl-3-phenylpropanamido)thiophene-3-carboxylic acid], < 10 µM.
The result for `Cc1oc(-c2ccccc2)cc1C(=O)Nc1scc(-c2ccc(Cl)cc2)c1C(=O)O` [4-(4-chlorophenyl)-2-(2-methyl-5-phenylfuran-3-carboxamido)thiophene-3-carboxylic acid] reads < 10 µM.
As for `O=C(COc1ccccc1)Nc1scc(-c2ccc(Cl)cc2)c1C(=O)O` [4-(4-chlorophenyl)-2-(2-phenoxyacetamido)thiophene-3-carboxylic acid], the IC50 is < 10 µM.
Next, `O=C(Cc1ccccc1)Nc1scc(-c2ccc(Cl)cc2)c1C(=O)O` [4-(4-chlorophenyl)-2-(2-phenylacetamido)thiophene-3-carboxylic acid]: < 10 µM; `O=C(CC(c1ccccc1)c1ccccc1)Nc1scc(-c2ccc(Cl)cc2)c1C(=O)O` [4-(4-chlorophenyl)-2-(3,3-diphenylpropanamido)thiophene-3-carboxylic acid]: < 10 µM.
The result for `Cc1noc(C)c1C(=O)Nc1scc(-c2ccc(Cl)cc2)c1C(=O)O` [4-(4-chlorophenyl)-2-(3,5-dimethylisoxazole-4-carboxamido)thiophene-3-carboxylic acid] reads < 10 µM.
The result for `O=C(CCc1ccc(F)cc1F)Nc1scc(-c2ccc(Cl)cc2)c1C(=O)O` [4-(4-chlorophenyl)-2-(3-(2,4-difluorophenyl)propanamido)thiophene-3-carboxylic acid] reads < 10 µM; that for `O=C(O)c1c(-c2ccc(Cl)cc2)csc1NC(=O)C(F)Cc1c(Cl)cccc1Cl` (centres unmarked) [4-(4-chlorophenyl)-2-(3-(2,6-dichlorophenyl)-2-fluoropropanamido)thiophene-3-carboxylic acid], < 10 µM.
Consider `O=C(CCc1c(Cl)cccc1Cl)Nc1scc(-c2ccc(Cl)cc2)c1C(=O)O` [4-(4-chlorophenyl)-2-(3-(2,6-dichlorophenyl)propanamido)thiophene-3-carboxylic acid], for which the half-maximal inhibitory concentration (IC50) was < 10 µM.
The result for `Cc1cccc(C)c1CCC(=O)Nc1scc(-c2ccc(Cl)cc2)c1C(=O)O` [4-(4-chlorophenyl)-2-(3-(2,6-dimethylphenyl)propanamido)thiophene-3-carboxylic acid] reads < 10 µM.
